Assay results as given in patent US20260256789A1, “METHODS FOR TREATMENT OF CANCER” (Frontier Medicines Corporation, priority 2022, published 2026).

Target: T1, KRAS G12C (GMPPNP-loaded) and cRAF Ras-binding domain (Homo sapiens, UniProt P01116, C118S/C51S/C80L/G12C)
T1 construct: truncated version comprising amino acids 1-169
Test: Inhibition of KRAS G12C and cRAF binding (AlphaScreen)
Details: KRAS G12C preloaded with GTP analogue GMPPNP, 2 hours preincubation
Text: The ability of compounds of Formula (A), Formula (B) and Formula (C), and pharmaceutically acceptable salts and/or isotopologues thereof, to inhibit activity of the GTP-bound form of KRAS G12C can be tested using methods such as the in vitro assay described in Example 179 below. Example 179 describes determining, for various compounds, the half-maximal inhibition (IC50) of KRAS G12C loaded with GTP analogue GMPPNP from binding to cRaf, as the Ras-binding domain (RBD). Example 180 describes determining, for various compounds, the half-maximal inhibition (IC50) of KRAS G12C loaded with GTP analogue GMPPNP from binding to PI3Kα, as the Ras-binding domain (RBD). Example 181 describes testing compounds for the ability to inhibit cell viability in MCF10A G12C/A59G mutant, which abrogates GTPase activity, thus preventing hydrolysis of GTP to GDP.
The AlphaScreen technology was used to determine IC50s for compound inhibition of KRAS G12C (present as the Cys-light (C51S, C80L and C118S), truncated version comprising amino acids 1-169) and cRAF interaction. Compounds were diluted in 100% DMSO and each compound concentration was spotted at 200 nl/well onto low volume, white 384 well plates. The KRAS G12C contained a biotin-AviTag and the cRaf, as Ras-binding domain (amino acids 50-131, RBD), was GST-tagged. KRAS G12C was preloaded with the GTP analogue Guanosine 5′-[β,γ-imido]triphosphate (GMPPNP). The KRAS G12C was diluted in 25 mM Hepes, pH 7.4, 150 mM NaCl, 5 mM MgCl2, 0.01% TritonX-100 and 10 μM GMPPNP and added at 10 ul/well to compound-spotted plates resulting in a DMSO concentration of 2%. Plates were incubated for 2 hours. A mixture of RBD and the AlphaScreen streptavidin donor and glutathione acceptor beads diluted in 25 mM Hepes, pH 7.4, 150 mM NaCl, 5 mM MgCl2, 0.01% TritonX-100 and 2% DMSO was then added at 10 ul/well and incubated for 60-90 minutes before the samples were read for emission at 570 nm after excitation of the donor beads at 680 nm. All incubations were performed at room temperature. The final top compound concentration was 50 μM with 1:3 titrations for 10-point dose response curves. Final assay conditions were 0.5 nM KRAS G12C, 0.75 nM RBD and 5 μg/ml each of AlphaScreen donor and acceptor beads. IC50s were determined using nonlinear regression fit of [inhibitor] vs. response (4 parameters). […]

T1 sequence (P01116 1-169 isoform P01116-2 G12C/C51S/C80L/C118S): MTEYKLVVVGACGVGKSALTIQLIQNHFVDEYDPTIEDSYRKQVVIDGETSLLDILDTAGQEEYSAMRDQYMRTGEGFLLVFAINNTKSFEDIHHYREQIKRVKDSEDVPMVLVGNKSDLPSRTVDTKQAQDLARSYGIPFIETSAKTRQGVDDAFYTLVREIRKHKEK

Q: Which IC50 does the source give for `C=CC(=O)N1CC[C@@H](N(C)c2nc(OC[C@@]34CCCN3C[C@H](F)C4)nc3c(F)c(-c4cccn5nccc45)ncc23)C1` [Example 234] here?
A: ≥ 0.5 µM

Q: With `CN1CC[C@H]1/C=C/C(=O)N1CC[C@@H](N(C)c2nc(OC[C@@]34CCCN3C[C@H](F)C4)nc3c(F)c(-c4nc(N)cc5cccc(Cl)c45)ncc23)C1` [Example 108] as the compound, how does the IC50 read?
A: 0.01 to 0.1 µM

Q: How did the IC50 turn out when `Cc1noc(/C=C/C(=O)N2CC[C@@H](N(C)c3nc(OCC45CCCN4CCC5)nc4c3CC(C)C(c3nc(N)cc(C)c3C(F)(F)F)C4)C2)n1` (some centres unmarked) [Example 143] was run?
A: < 0.01 µM

Q: Which IC50 does the source give for `CN(CC1CN(C(=O)/C=C/c2nc(C(C)(C)O)no2)C1)c1nc(OC[C@@]23CCCN2C[C@H](F)C3)nc2c(F)c(-c3nc(N)cc4cccc(F)c34)ncc12` [Example 35, (E)-1-(3-(((7-(3-amino-8-fluoroisoquinolin-1-yl)-8-fluoro-2-(((2R,7aS)-2-fluorohexahydro-1H-pyrrolizin-7a-yl)methoxy)pyrido[4,3-d]pyrimidin-4-yl)(methyl)amino)methyl)azetidin-1-yl)-3-(3-(2-hydroxypropan-2-yl)-1,2,4-oxadiazol-5-yl)prop-2-en-1-one] here?
A: < 0.01 µM

Q: For `C=CC(=O)N1CC[C@@H](N(C)c2nc(OC[C@@]34CCCN3C[C@H](F)C4)nc3c(F)c(-c4nc(N)ccc4F)ncc23)C1` [Example 96, 1-((R)-3-((7-(6-amino-3-fluoropyridin-2-yl)-8-fluoro-2-(((2R,7aS)-2-fluorotetrahydro-1H-pyrrolizin-7a(5H)-yl)methoxy)pyrido[4,3-d]pyrimidin-4-yl)(methyl)amino)pyrrolidin-1-yl)prop-2-en-1-one], which IC50 is on record?
A: ≥ 0.5 µM

Q: How did the IC50 turn out when `Cc1cc(N)nc(-c2ncc3c(N(C)CC4CN(C(=O)/C=C/c5nc(C(C)C)no5)C4)nc(OC[C@@]45CCCN4C[C@H](F)C5)nc3c2F)c1C` [Example 85] was run?
A: 0.1 to 0.5 µM

Q: Which IC50 does the source give for `C=CC(=O)N1CC[C@@H](N(C)c2nc(OC[C@@]34CCCN3C[C@H](F)C4)nc3c(F)c(-c4nccc(C)c4C(F)(F)F)ncc23)C1` [Example 211] here?
A: ≥ 0.5 µM

Q: Which IC50 does the source give for `C=CC(=O)N1CC(CN(C)c2nc(OC[C@@]34CCCN3C[C@H](F)C4)nc3c2C[C@H](C)[C@@H](c2nc(N)cc(C)c2C(F)(F)F)C3)C1` [Example 137, 1-(3-((((6S,7S)-7-(6-amino-4-methyl-3-(trifluoromethyl)pyridin-2-yl)-2-(((2R,7aS)-2-fluorotetrahydro-1H-pyrrolizin-7a(5H)-yl)methoxy)-6-methyl-5,6,7,8-tetrahydroquinazolin-4-yl)(methyl)amino)methyl)azetidin-1-yl)prop-2-en-1-one] here?
A: ≥ 0.5 µM

Q: How did the IC50 turn out when `C=CC(=O)N1CC[C@@H](N(C)C2=c3cnc(-c4c[nH]nc4Cl)c(F)c3=NC(OC[C@@]34CCCN3C[C@H](F)C4)N2)C1` (some centres unmarked) [Example 225] was run?
A: ≥ 0.5 µM

Q: How did the IC50 turn out when `CN(c1nc(OCC23CCCN2CCC3)nc2c(F)c(-c3nc(N)cc4cccc(Cl)c34)ncc12)[C@@H]1CCN(C#N)C1` [Example 66, (R)-3-((7-(3-amino-8-chloroisoquinolin-1-yl)-8-fluoro-2-((hexahydro-1H-pyrrolizin-7a-yl)methoxy)pyrido[4,3-d]pyrimidin-4-yl)(methyl)amino)pyrrolidine-1-carbonitrile] was run?
A: 0.01 to 0.1 µM

Q: How did the IC50 turn out when `C=CC(=O)N1CC(CN(C)c2nc(OC[C@@]34CCCN3C[C@H](F)C4)nc3c(F)c(-c4nc(N)cc(C)c4C)ncc23)C1` [Example 146, 1-(3-(((7-(6-amino-3,4-dimethylpyridin-2-yl)-8-fluoro-2-(((2R,7aS)-2-fluorotetrahydro-1H-pyrrolizin-7a(5H)-yl)methoxy)pyrido[4,3-d]pyrimidin-4-yl)(methyl)amino)methyl)azetidin-1-yl)prop-2-en-1-one] was run?
A: ≥ 0.5 µM

Q: For `Cc1cc(N)nc([C@H]2Cc3nc(OC[C@@]45CCCN4C[C@H](F)C5)nc(N(C)CC4CN(C(=O)/C=C/c5nc(C(C)(C)O)no5)C4)c3C[C@@H]2C)c1C(F)(F)F` (single isomer, unassigned) [Example 155], which IC50 is on record?
A: ≥ 0.5 µM

Q: How did the IC50 turn out when `C=CC(=O)N1CC[C@H](O)[C@@H](N(C)c2nc(OC[C@@]34CCCN3C[C@H](F)C4)nc3c(F)c(-c4cccc(Cl)c4C(F)(F)F)ncc23)C1` [Example 205] was run?
A: ≥ 0.5 µM

Q: `C=CC(=O)N1C[C@H](F)[C@@H](N(C)c2nc(OC[C@@]34CCCN3C[C@H](F)C4)nc3c(F)c(-c4cc(O)cc(Cl)c4C4CC4)ncc23)C1` [Example 243] was tested. Which IC50 did it give?
A: < 0.01 µM

Q: With `CN(c1nc(OC[C@@]23CCCN2C[C@H](F)C3)nc2c(F)c(-c3nc(N)cc4cccc(Cl)c34)ncc12)[C@@H]1CCN(C(=O)/C=C/CN2CCOCC2)C1` [Example 116] as the compound, how does the IC50 read?
A: 0.1 to 0.5 µM

Q: With `CO[C@@H]1CCN(C/C=C/C(=O)N2CC[C@@H](N(C)c3nc(OC[C@@]45CCCN4C[C@H](F)C5)nc4c(F)c(-c5cccc(Cl)c5C5CC5)ncc34)C2)C1` [Example 222] as the compound, how does the IC50 read?
A: 0.1 to 0.5 µM

Q: With `C=CC(=O)N1CC[C@@H](N(C)c2nc(OCC34CCCN3CCC4)nc3c2C[C@@H](C)[C@H](c2nc(N)cc(C)c2C(F)(F)F)C3)C1` [Example 149, 1-((R)-3-(((6R,7R)-7-(6-amino-4-methyl-3-(trifluoromethyl)pyridin-2-yl)-6-methyl-2-((tetrahydro-1H-pyrrolizin-7a(5H)-yl)methoxy)-5,6,7,8-tetrahydroquinazolin-4-yl)(methyl)amino)pyrrolidin-1-yl)prop-2-en-1-one] as the compound, how does the IC50 read?
A: ≥ 0.5 µM

Q: `CN(c1nc(OC[C@@]23CCCN2C[C@H](F)C3)nc2c(F)c(-c3nc(N)cc4cccc(Cl)c34)ncc12)[C@@H]1CCN(C(=O)/C=C/c2nc(C(C)(C)O)no2)C1` [Example 93] was tested. Which IC50 did it give?
A: < 0.01 µM

Q: `C=CC(=O)N1CC[C@@H](N(C)c2nc(OCC34CCCN3CCC4)nc3c2CC(C)C(c2nc(N)cc(C)c2C(F)(F)F)C3)C1` (some centres unmarked) [Example 98] was tested. Which IC50 did it give?
A: 0.1 to 0.5 µM

Q: How did the IC50 turn out when `C=CC(=O)N1CC[C@@H](N(C)c2nc(OC[C@@]34CCCN3C[C@H](F)C4)nc3c(F)c(-c4cc(N)nc(C)c4C(F)(F)F)ncc23)C1` [Example 107, 1-((R)-3-((7-(6-amino-2-methyl-3-(trifluoromethyl)pyridin-4-yl)-8-fluoro-2-(((2R,7aS)-2-fluorotetrahydro-1H-pyrrolizin-7a(5H)-yl)methoxy)pyrido[4,3-d]pyrimidin-4-yl)(methyl)amino)pyrrolidin-1-yl)prop-2-en-1-one] was run?
A: 0.01 to 0.1 µM

Q: How did the IC50 turn out when `Cc1noc(/C=C/C(=O)N2CC[C@@H](N(C)c3nc(OC[C@@]45CCCN4C[C@H](F)C5)nc4c(F)c(-c5nc(N)ccc5C(F)(F)F)ncc34)C2)n1` [Example 48, (E)-1-((R)-3-((7-(6-amino-3-(trifluoromethyl)pyridin-2-yl)-8-fluoro-2-(((2R,7aS)-2-fluorotetrahydro-1H-pyrrolizin-7a(5H)-yl)methoxy)pyrido[4,3-d]pyrimidin-4-yl)(methyl)amino)pyrrolidin-1-yl)-3-(3-methyl-1,2,4-oxadiazol-5-yl)prop-2-en-1-one] was run?
A: 0.01 to 0.1 µM

Q: With `Cc1noc(/C=C/C(=O)N2CC[C@@H](N(C)c3nc(OC[C@@]45CCCN4C[C@H](F)C5)nc4c3C[C@@H](C)[C@H](c3nc(N)cc(C)c3C(F)(F)F)C4)C2)n1` (single isomer, unassigned) [Example 57] as the compound, how does the IC50 read?
A: < 0.01 µM

Q: For `Cc1nccc(/C=C/C(=O)N2CC[C@@H](N(C)c3nc(OC[C@@]45CCCN4C[C@H](F)C5)nc4c(F)c(-c5cc(O)cc(Cl)c5C5CC5)ncc34)C2)n1` [Example 254], which IC50 is on record?
A: < 0.01 µM

Q: How did the IC50 turn out when `CC(C)c1noc(/C=C/C(=O)N2CC[C@@H](N(C)c3nc(OC[C@@]45CCCN4C[C@H](F)C5)nc4c(F)c(-c5nc(N)ccc5C(F)(F)F)ncc34)C2)n1` [Example 47, (E)-1-((R)-3-((7-(6-amino-3-(trifluoromethyl)pyridin-2-yl)-8-fluoro-2-(((2R,7aS)-2-fluorotetrahydro-1H-pyrrolizin-7a(5H)-yl)methoxy)pyrido[4,3-d]pyrimidin-4-yl)(methyl)amino)pyrrolidin-1-yl)-3-(3-isopropyl-1,2,4-oxadiazol-5-yl)prop-2-en-1-one] was run?
A: 0.01 to 0.1 µM

Q: For `C=CC(=O)N1CC[C@@H](N(C)c2nc(OC[C@@]34CCCN3C[C@H](F)C4)nc3c(F)c(-c4cn[nH]c4C4CC4)ncc23)C1` [Example 179], which IC50 is on record?
A: ≥ 0.5 µM

Q: With `CN(c1nc(OC[C@@]23CCCN2C[C@H](F)C3)nc2c(F)c(-c3cccc(Cl)c3C3CC3)ncc12)[C@@H]1CCN(C(=O)/C=C/CN2C[C@@H]3C[C@H]2CO3)C1` [Example 231] as the compound, how does the IC50 read?
A: 0.01 to 0.1 µM
